The results in this text go back to article PMC7992156 (ACS Omega, 2021).

In the test the target is T1, irisin (Homo sapiens, UniProt Q8NAU1).
T1 sequence (Q8NAU1 80-191): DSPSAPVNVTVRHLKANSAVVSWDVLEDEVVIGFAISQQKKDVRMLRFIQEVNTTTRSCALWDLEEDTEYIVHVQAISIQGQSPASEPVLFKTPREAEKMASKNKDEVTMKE
The test can be described thus: isothermal titration calorimetry. The format is binding.

Structures can show the parent of a compound that is named as a salt.

Take `CCN(C)C(=O)Oc1cccc([C@H](C)N(C)C)c1` [RT, rivastigmine tartrate]: the Kd is 14.4 µM.
